Data taken from ChEMBL document CHEMBL1201862, “PubChem BioAssay data set” (2004).
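Compound exposure: 48 hours, 5 concentrations, 96-well plates. Abbreviation: GI50, concentration required for 50% inhibition of growth.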 Active and inactive are the calls of the source. Rule as the data show it: active = GI50 up to about 1.1 µM and inactive = higher.

Tests used:
Assay in all cases: DTP human tumour cell line panel, 48 h
[1] = test system: A498
[2] = test system: A549
[3] = test system: COLO 205
[4] = test system: HL-60
[5] = test system: LOX IMVI
[6] = test system: MDA-MB-435
[7] = test system: NCI-H226
[8] = test system: NCI-H23
[9] = test system: NCI-H522
[10] = test system: OVCAR-3
[11] = test system: OVCAR-4
[12] = test system: OVCAR-8
[13] = test system: RPMI-8226
[14] = test system: RXF 393
[15] = test system: SK-MEL-2
[16] = test system: SN12C
[17] = test system: SW-620
[18] = test system: UACC-257
[19] = test system: SF-539
[20] = test system: CCRF-CEM

Measured: GI50

CC(C)CC1c2[nH]c3ccccc3c2C[C@H]2C(=O)NC(CCCCNC(=O)OC(C)(C)C)C(=O)N12 (stereo partly drawn)
inactive: [1] 35.4 µM | [2] 33.7 µM | [3] 27.7 µM | [4] 21.7 µM | [5] 24.6 µM | [6] 33 µM | [7] 55.3 µM | [8] 33 µM | [9] 19.5 µM | [10] 2.36 µM | [11] 37.7 µM | [12] 34.2 µM | [13] 18.7 µM | [14] 6.62 µM | [15] 21.6 µM | [16] 33.9 µM | [17] 41 µM | [18] 44.8 µM

CC(NC(=O)c1ccc(Cl)c(Cl)c1)c1ccc(-c2ccccc2)cc1 (stereo not drawn)
inactive: [1] 28.9 µM | [2] 16.4 µM | [3] > 100 µM | [4] 4.58 µM | [5] 38.3 µM | [6] 69.5 µM | [7] 31.3 µM | [8] 48.3 µM | [9] 33.3 µM | [10] 20.8 µM | [11] 16.4 µM | [12] 26.3 µM | [13] 39.4 µM | [14] 12.1 µM | [19] 19.3 µM | [15] > 100 µM | [16] 52.2 µM | [17] 79.4 µM | [18] 76.2 µM

O=[N+]([O-])c1ccc(-[n+]2ccc3ccccc3c2)c([N+](=O)[O-])c1
inactive: [1] 14.8 µM | [2] 16.4 µM | [20] 1.54 µM | [3] 2.55 µM | [4] 1.54 µM | [5] 1.95 µM | [6] 2.5 µM | [7] 16.2 µM | [8] 2.43 µM | [9] 2.1 µM | [10] 2.55 µM | [11] 1.56 µM | [12] 2.47 µM | [13] 2.32 µM | [14] 1.92 µM | [19] 5.21 µM | [15] 11.1 µM | [16] 2.69 µM | [17] 1.95 µM | [18] 1.81 µM

CCN(CC)C1Oc2cc3c(cc2C(c2cccc(OC)c2OC)C1C)OCO3 (stereo not drawn)
inactive: [1] 5.81 µM | [2] 4.46 µM | [20] 2.17 µM | [3] 3.85 µM | [4] 1.88 µM | [5] 3.66 µM | [6] 10.1 µM | [7] 2.05 µM | [8] 8.47 µM | [9] 4.13 µM | [10] 2.7 µM | [12] 3.56 µM | [13] 1.48 µM | [14] 2.23 µM | [19] 10.2 µM | [15] 6.07 µM | [16] 5.4 µM | [17] 4.24 µM | [18] 3.95 µM

CCN(CC)CCN1C(=O)c2c(c(-c3ccccc3)c3ccccc3c2-c2ccccc2)C1=O
inactive: [1] > 100 µM | [2] > 100 µM | [20] > 100 µM | [3] > 100 µM | [4] > 100 µM | [5] > 100 µM | [6] > 100 µM | [7] > 100 µM | [9] > 100 µM | [11] > 100 µM | [12] > 100 µM | [13] > 100 µM | [14] 25.8 µM | [19] 54.1 µM | [15] > 100 µM | [16] > 100 µM | [17] > 100 µM | [18] > 100 µM

C1=Nc2sc3c(c2C2=NCCN12)CCCC3
active: [15] 0.465 µM
inactive: [1] 20.6 µM | [3] 23.3 µM | [4] 13.6 µM | [5] 14.7 µM | [6] 18.5 µM | [7] 13.3 µM | [8] 15.6 µM | [9] 15.9 µM | [10] 17.6 µM | [11] 20.6 µM | [12] 17.1 µM | [13] 20.8 µM | [14] 25 µM | [17] 21 µM | [18] 16.3 µM

O=C(O)Cc1c(-c2ccc([N+](=O)[O-])cc2)c(=O)oc2cc(O)ccc12
inactive: [1] 22.4 µM | [2] 37.3 µM | [20] 22.5 µM | [3] 34.2 µM | [4] 17.7 µM | [5] 36.1 µM | [6] 28.8 µM | [7] 29 µM | [8] 36.3 µM | [9] 29 µM | [10] 18.9 µM | [12] 23.2 µM | [13] 19.9 µM | [14] 30.3 µM | [19] 32.4 µM | [15] 21.2 µM | [16] 30.5 µM | [17] 34.8 µM | [18] 20.4 µM

COc1cc(NC(C)c2ccc3c(c2)OCCO3)cc(OC)c1OC (stereo not drawn)
inactive: [1] 77.1 µM | [2] 45 µM | [3] 31.3 µM | [4] 18.5 µM | [5] 46.2 µM | [6] 4.69 µM | [7] 24.3 µM | [8] 18.9 µM | [9] 17.5 µM | [10] 32.1 µM | [11] 68.4 µM | [12] 47.3 µM | [13] 23.9 µM | [14] 27.3 µM | [19] 22.1 µM | [15] 23.2 µM | [16] 63.2 µM | [17] 33.9 µM | [18] 28.7 µM
